Assay results taken from patent publication US20190151283A1, “NON-STEROIDAL SELECTIVE GLUCOCORTICOID RECEPTOR AGONISTIC MODULATORS (SEGRAMs) AND USES THEREOF” (ASSOCIATION POUR LA RECHERCHE À L'IGBMC (ARI), priority 2017, published 2019).

Tests used:
Balb/C mouse ears [1] = test: Aldara-induced psoriasis-like skin inflammation; assay type: in vivo; conditions: for induced expression of the Th17 cytokines IL-17a, IL-17c, IL-17f and IL-22: ear extracts, q-RT-PCR, D10; for Aldara-induced psoriasis-like skin inflammation, H&E histology: mouse, in vivo; for Aldara-induced psoriasis-like skin inflammation: topical co-treatment for the last 5 days, 1 nmole/cm^2
Description: Balb/C mouse ears were topically treated with Aldara® to induce a psoriasis-like skin inflammation (Vinter et al., 2015. Br J Dermatol. 172(2):345-53). Mice were treated for 9 days with Aldara®, including a co-topical treatment for the last 5 days with either ethanol (Vehicle), Dex, CpdX or CpdX-D3.
At D10, RNA transcripts were extracted from mouse ears and IL-17a, IL-17c, IL-17f and IL-22 transcripts were analyzed by q-RT-PCR. Ear skin samples were also harvested for histological analyses (with H&E staining).

B6 male mice = test: Body weight and body composition after three-month treatment; assay type: in vivo, mouse; conditions: s.c. 1 mg/kg daily, 3 months, pDEXA
Description: B6 male mice (8-week-old) were daily subjected for three months to a subcutaneous injection of either vehicle (NaCl 0.9%), Dex, CpdX or CpdX-D3 (1 mg/kg body weight, diluted in vehicle. A pDEXA machine was used to determine the lean mass and fat mass. The statistical significance was calculated through Krustal-Walis test followed by a Dunn's multiple comparison test, *p<0.05; **p<0.01; ***p<0.001.

mice = test: Ovalbumin (OVA)-induced asthma-like allergic lung inflammation; assay type: in vivo, mouse
Description: Glucocorticoids have been (Pearlman et al., 1997. Ann Allergy Asthma Immunol. 78(4):356-62), and are still, widely used in asthma therapy. In order to investigate the possible CpdX anti-inflammatory activity in vivo, mice were sensitized and challenged with either ovalbumin (OVA) or house dust mite (HDM) to induce an asthma-like allergic lung inflammation.
Mice were intraperitoneally sensitized with either 50 μg OVA together with alum or with alum alone on D0, D7 and D14. Mice were then subdivided into three groups, and on D19, D20 and D21, they were intranasally (i.n.) challenged with 10 μg OVA. The first and the second group received intranasally 0.5 mg/kg of body weight of Dex or CpdX respectively, while the third group served as a control.
On D22, the lung allergic inflammation was assessed for each mouse by examination of the bronchoalveolar lavage fluid (BAL). The total BAL cells, eosinophils, neutrophils, macrophages and lymphocytes were counted. RNA transcripts were extracted from lung samples and RNA transcripts of IL-1β, IL-6, IL-4, IL-5, IL-10, IL-13, Eotaxin, CCL4 and TNFα were analyzed by q-RT-PCR. Histological (with H&E staining) and immunohistochemical (with eosinophil-specific and neutrophil-specific antibodies) analyses of lung tissues were also carried out.

Balb/C mouse ears [2] = test: Calcipotriol (MC 903)-induced atopic dermatitis-like inflammation; assay type: in vivo; conditions: for MC 903-induced ear skin inflammation, histological analysis: compared to the control; for MC 903-induced transcription of pro-inflammatory genes (MMP13, COX2, IL-1β, IL-6, IL-10, IL-13 and TSLP): ear extracts, q-RT-PCR, D23; for expression of the TSLP lymphokine in MC 903-treated mouse epidermis: immunohistochemistry, data not shown; for MC 903-induced skin inflammation: topical, 8 days co-treatment with MC 903
Description: To investigate the CpdX anti-inflammatory activity in vivo, Balb/C mouse ears were topically treated with calcipotriol (MC 903, a vitamin D3 analogue), in order to induce an atopic dermatitis (AD)-like inflammation (Li et al., 2006. Proc Natl Acad Sci USA. 103[…].
Mice were treated for 14 days with MC 903, and then for 8 extra days (until D22) with either MC 903 alone (control), MC 903 and Dex, MC 903 and CpdX, MC 903 and CpdX(eA), MC 903 and CpdX(eB), MC 903 and CpdX-D3, MC 903 and CpdX-D3(eA) and MC 903 and CpdX-D3(eB).
At D23, RNA transcripts were extracted from mouse ear skin samples and the transcripts of 7 cytokines (MMP13, COX2, IL-1β, IL-6, IL-10, IL-13 and TSLP) were analyzed by q-RT-PCR. Ear skin was harvested and histological (with H&E staining) and immunohistochemical (with anti-TSLP antibodies) analyses were carried out.

[3] = target: T1, glucocorticoid receptor (GR) (Mus musculus, UniProt P06537); test: GR transcriptional functions in mouse ears after topical 18-hour treatment (q-RT-PCR); assay type: in vivo
T1 construct: RNA transcripts were then extracted from mouse ears; from tissue; host or cells: ear skin of Balb/C mice (in vivo topical treatment)
T1 sequence (P06537 1-792): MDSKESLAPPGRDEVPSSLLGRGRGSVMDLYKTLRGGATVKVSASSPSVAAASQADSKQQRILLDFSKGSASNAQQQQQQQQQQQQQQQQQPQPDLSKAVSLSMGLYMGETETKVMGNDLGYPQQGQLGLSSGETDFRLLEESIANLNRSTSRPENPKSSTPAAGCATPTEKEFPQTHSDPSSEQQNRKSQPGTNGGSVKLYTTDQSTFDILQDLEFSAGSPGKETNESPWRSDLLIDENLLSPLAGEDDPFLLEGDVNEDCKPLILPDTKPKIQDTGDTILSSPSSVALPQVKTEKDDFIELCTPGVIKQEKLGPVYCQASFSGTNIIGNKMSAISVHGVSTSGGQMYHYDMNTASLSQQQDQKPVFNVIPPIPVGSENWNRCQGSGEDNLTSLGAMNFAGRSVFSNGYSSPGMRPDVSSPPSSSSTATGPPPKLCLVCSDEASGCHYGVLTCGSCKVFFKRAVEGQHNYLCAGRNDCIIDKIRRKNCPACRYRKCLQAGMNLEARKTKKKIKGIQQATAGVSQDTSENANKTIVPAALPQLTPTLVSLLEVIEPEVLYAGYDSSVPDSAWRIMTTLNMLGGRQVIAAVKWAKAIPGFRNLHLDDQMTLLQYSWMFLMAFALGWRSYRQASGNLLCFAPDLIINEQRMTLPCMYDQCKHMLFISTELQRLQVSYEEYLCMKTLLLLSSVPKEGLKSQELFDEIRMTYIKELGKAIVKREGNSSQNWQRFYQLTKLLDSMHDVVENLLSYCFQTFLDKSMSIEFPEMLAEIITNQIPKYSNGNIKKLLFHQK
Description: RNA transcripts were then extracted from mouse ears and the transcripts of 4 genes were analyzed by q-RT-PCR: • (i) the directly GR-transactivated gene of the mTOR inhibitor REDD1, • (ii) the GR-directly transrepressed gene of keratin 5 (K5) and • (iii) the GR-indirectly “tethered” transrepressed genes of interleukin-1β (IL-1β) and interleukin-6 (IL-6), both being activated in presence of 12-O-tetradecanoylphorbol-13-acetate (TPA).

[4] = topical 18 h, 1 nmole/cm^2, q-RT-PCR, vs Vehicle

Structure (SMILES) | induced expression of the Th17 cytokines IL-17a, IL-17c, IL-17f and IL-22 (Balb/C mouse ears [1]) | Aldara-induced psoriasis-like skin inflammation, H&E histology (Balb/C mouse ears [1]) | Aldara-induced psoriasis-like skin inflammation (Balb/C mouse ears [1]) | fat mass (B6 male mice) | lean percentage / lean mass (B6 male mice) | eosinophils and neutrophils in lung, immunohistochemistry (mice; data not shown) | peribronchiolar and perivascular inflammatory cell infiltration (mice; histology of lung paraffin sections) | number of macrophages in BAL (mice; intranasal 0.5 mg/kg on D19-D21, BAL on D22) | total number of BAL cells, eosinophils, neutrophils and lymphocytes (mice; intranasal 0.5 mg/kg on D19-D21, BAL on D22, vs control group) | expressions of IL-1β, IL-6, IL-4, IL-5, IL-10, IL-13, Eotaxin, CCL4 and TNFα in lung samples (mice; q-RT-PCR, D22) | MC 903-induced ear skin inflammation, histological analysis (Balb/C mouse ears [2]) | MC 903-induced transcription of pro-inflammatory genes (MMP13, COX2, IL-1β, IL-6, IL-10, IL-13 and TSLP) (Balb/C mouse ears [2]) | expression of the TSLP lymphokine in MC 903-treated mouse epidermis (Balb/C mouse ears [2]) | MC 903-induced skin inflammation (Balb/C mouse ears [2]) | GR functions induced (direct transactivation, direct transrepression, indirect tethered transrepression) ([3]; in vivo transcriptional analyses, 1 nmole/cm^2) | direct transrepression of the K5 gene (relative RNA expression) [3, 4] | transactivation of the REDD1 gene (relative RNA expression) [3, 4]
COc1ccc(F)cc1C(C)(C)CC(O)(CNc1ccc2c(c1)COC2=O)C(F)(F)F (racemic) [CpdX, 5-[4-(5-fluoro-2-methoxyphenyl)-2-hydroxy-4-methyl-2-(trifluoromethyl)pentylamino]-isobenzofuran-1(3H)-one] | similarly reduced | could reduce | significantly decreased | commensurate increase | commensurate increase | similarly decreased | strongly decreased | unchanged | significantly decreased | significantly and similarly decreased | decreased | repressed, as efficiently as Dex | similarly strongly decreased | significantly decreased | selectively exhibits an indirect tethered transrepression activity | unchanged | unchanged
[2H]C([2H])([2H])Oc1ccc(F)cc1C(C)(C)CC(O)(CNc1ccc2c(c1)COC2=O)C(F)(F)F (racemic) [CpdX-D3, 5-{4-[2-(methoxy-D3)-5-fluorophenyl]-2-hydroxy-4-methyl-2-(trifluoro-methyl)pentylamino}isobenzofuran-1(3H)-one] | similarly reduced | could reduce | significantly decreased | commensurate increase | commensurate increase | – | – | – | – | – | decreased | repressed, as efficiently as Dex | similarly strongly decreased | significantly decreased | – | – | –
